“And” between values parts separate entries of the source, which are not always exact repeats. Equal entries are not always repeated. Where two headings read alike, the source gives them in different places.
Key:
[1] = Urinary excretion and pharmacokinetics after a single oral dose of 50 mg of pure ecdysterone (LC-MS/MS of urine); format: in vivo, human; details: for Subjects in whose post-administration urine the analyte was detected: 12 subjects; for Cmax / half-life / Tmax: both sexes; for Cmax / half-life: human, po, 50 mg; for Tmax: read-out: Tmax (time to maximum urinary concentration); for Cumulative urinary excretion percentage relative to dose, mean / Cumulative urinary excretion percentage relative to dose, range over subjects: percent of the 50 mg dose; for Cumulative urinary excretion percentage relative to dose, mean: mean value; for Cumulative Du (cumulative amount excreted in urine): mean ± SD of 12 subjects (14-deoxy-poststerone n = 10); for Difference of cumulative urinary excretion percentage between male and female (T-test): p ≤ 0.05, 5 males, 7 females; for Kinetics of urinary elimination: log-linear rate of excretion versus middle-point time
Protocol: The study was approved by the ethical committee of the German Sport University Cologne, and was carried out following the regulations of the Helsinki declaration. Twelve healthy subjects (7 females and 5 males) with a mean age (standard deviation [SD]) of 26 (3.1) y, weight of 74 (12.0) kg, and height of 174 (8.3) cm participated in the study. A single-dose of 50 mg of pure ecdysterone dissolved in 50 cl of alcoholic solution was administered to the subjects. All doses were administered at 9.00 a.m. in the morning. The urine samples were collected one day before (blank samples) and five days after the administration of ecdysterone. Sampling time (h) and urine volume (mL) were recorded. Aliquots of urine samples were stored frozen at −18 °C, until analysis.
Urine samples (200 µL) spiked with 10 µL of the ISTD ponasterone (working solution 10 µg/mL) and diluted to 1 mL with methanol:water (10:90, v/v). The tubes were vortex-mixed and then centrifuged at 9677 RCF for 8 min.
The analysis of ecdysterone and its metabolite in calibration and urine samples was performed by LC–MS/MS on an Agilent 1200 Infinity series, coupled to an Ultivo triple quadrupole tandem MS system, utilizing a Jet Stream electrospray ionization (ESI) source and an Ion Funnel (Agilent Technologies GmbH, Waldronn, Germany).
In this study, the excretion profile, the cumulative amount excreted in urine, and the half-life of ecdysterone and its metabolites, after a single-dose administration of 50 mg of pure ecdysterone were evaluated according to [45].
To obtain the excretion rates, Equation (1) was applied:(1) Erate,i=Ci x Vi/ (ti−ti−1)
For each urine sample, the calculated concentration (Ci, ng/mL) of ecdysterone, 14-deoxy-ecdysterone, and 14-deoxy-poststerone was adjusted as a function of the dilution factor applied (1:5) and of the volume of urine collected (Vi, mL), obtaining the corresponding amount of drug in urine (expressed in ng), which was divided by the interval between the time values of the sampling and the previous sampling (ti − ti−1).
The excretion profile curves of ecdysterone and its metabolites for each subject were then obtained by plotting the calculated rate of excretion values (ng/h) versus time (middle-point of sample collection, hours) or simply the calculated concentrations (ng/mL) versus time (sampling time, hours). The first collected interval started at 0 h after the oral administration of ecdysterone at 9 a.m.
For each sample, the amount of drug excreted in urine was calculated and added to the amount of drug recovered in the previous urine sample to obtain the cumulative urinary drug excretion, which was plotted in a graph versus the sampling time (hours).
The half-life using the elimination rate constant (k) was calculated by applying Equation (2):(2) t1/2=ln(2)/k
Two different methods were used to calculate the elimination rate constant (k). In the rate of excretion method, k was obtained from the slope of the elimination phase of the ln-transformed excretion curve (Figure 6).
In the sigma minus method, k was obtained from the slope of the elimination phase of the ln-transformed remaining drug to be excreted.

[2] = Stability of analytes in spiked urine QC samples (bench-top, long term, freeze-thaw); format: in vitro ADME, human; details: vs t = 0, mean n = 3
Protocol: The stability of ecdysterone and 14-deoxy-ecdysterone in urine was determined in triplicates, using the LQC and HQC samples, which were analyzed immediately and again after storage, as reported in Table 4. Freshly prepared QC samples (at t = 0) were used as baseline to assess the stability.
To evaluate the bench-top stability, LQC and HQC samples were left at room temperature for 4, 8, and 24 h, before analysis. Freeze and thaw stability was evaluated after three cycles for LQC and HQC. Long-term stability was evaluated analyzing the LQC and HQC samples, after storing them at −20 °C for two weeks. The results of the stability tests applied were calculated using the peak area ratio of the analytes to the ISTD, which were compared to the baseline (t = 0). Comparing the mean of the ratios after a specific storage condition to the mean of the ratio at t = 0. The results obtained were all within the ±15%.

[3] = single oral dose 50 mg ecdysterone
[4] = urine, human urine, single oral dose 50 mg ecdysterone, mean ± SD of 12 subjects (14-deoxy-poststerone n = 5), read-out: Cmax (maximum urinary concentration)
[5] = urine, human urine, single oral dose 50 mg ecdysterone, mean ± SD of 12 subjects (14-deoxy-poststerone n = 5), read-out: Half Life, Rate of Excretion method (converted)
[6] = urine, human urine, single oral dose 50 mg ecdysterone, mean ± SD of 12 subjects (14-deoxy-poststerone n = 5), read-out: Half Life, Sigma-Minus method (converted)
[7] = urine, human urine, single oral dose 50 mg ecdysterone, range over subjects, read-out: Maximum urinary concentration (Cmax), range over subjects
[8] = human urine, single oral dose 50 mg ecdysterone, mean ± SD of 12 subjects (14-deoxy-poststerone n = 5)
[9] = human urine, range over subjects
[10] = human urine, single oral dose 50 mg ecdysterone
[11] = human urine, single oral dose 50 mg ecdysterone, range over subjects
[12] = HQC, bench-top room temperature 4 h
[13] = HQC, bench-top room temperature 8 h
[14] = HQC, bench-top room temperature 24 h
[15] = HQC, long term 2 weeks at −20 °C
[16] = LQC, bench-top room temperature 4 h
[17] = LQC, bench-top room temperature 8 h
[18] = LQC, bench-top room temperature 24 h
[19] = LQC, long term 2 weeks at −20 °C

Structure (SMILES) | Subjects in whose post-administration urine the analyte was detected [1, 3] | Cmax [1, 4] | half-life [1, 5] | half-life [1, 6] | Cmax [1, 7] | Tmax [1, 8] | Cumulative urinary excretion percentage relative to dose, mean ([1]; human urine) | Cumulative urinary excretion percentage relative to dose, range over subjects [1, 9] | Duration of detectability in urine [1, 10] | First detection in urine after administration (start of detection window) [1, 10] | Remained detectable in urine until (end of detection window) [1, 10] | ERmax (maximum urinary rate of excretion) [1, 8] | Midpoint Timemax (maximum urinary middle-point time) [1, 8] | Cumulative Du (cumulative amount excreted in urine) [1, 10] | Time of the urine with maximum concentration, range over subjects [1, 11] | Difference of cumulative urinary excretion percentage between male and female (T-test) [1] | Urinary half-life (approximate) [1, 10] | Maximum excretion rate, range over subjects [1, 11] | Time of the urine with maximum excretion rate, range over subjects [1, 11] | Kinetics of urinary elimination [1] | also measured
CC(=O)[C@H]1CC[C@H]2C3=CC(=O)[C@@H]4C[C@@H](O)[C@@H](O)C[C@]4(C)[C@H]3CC[C@]12C [14-deoxy-poststerone, alpha-14-deoxy-poststerone] | 10 out of 12 | 800 ± 700 ng/mL | 9.7 ± 9.5 h | 4.4 ± 1 h | 100 to 1500 ng/mL | 30.1 ± 7.2 h | 1.5% | 0.01–4.9% | about 4 days | 8.50 h | 97 h | 0.1 ± 0.1 mg/h | 27.8 ± 3.7 h | 0.7 ± 1.1 mg | 23.3 to 41.3 h | significant difference |  |  |  |  | 
CC(C)(O)CC[C@@H](O)[C@](C)(O)[C@H]1CC[C@@]2(O)C3=CC(=O)[C@@H]4C[C@@H](O)[C@@H](O)C[C@]4(C)[C@H]3CC[C@]12C [Ecdysterone, 2β,3β,14α,20β,22R,25-hexahydroxy-5β-cholest-7-en-6-one] | all subjects |  |  |  |  |  | 18% | 2.8–47.2% | more than 2 days |  | 58 h | 1.7 ± 1.4 mg/h | 2.1 ± 1.3 h | 8.8 ± 6.6 mg | 2.8 to 8.5 h | No significant difference | three | 0.1 to 4.8 mg/h | 0.4 to 4.4 h | first-order kinetics | Cmax ([1]; in vivo, human urine, single oral dose 50 mg ecdysterone, mean ± SD of 12 subjects (14-deoxy-poststerone n = 5), read-out: Cmax (maximum urinary concentration)): 12100 ± 9200 ng/mL; half-life ([1]; in vivo, human urine, single oral dose 50 mg ecdysterone, mean ± SD of 12 subjects (14-deoxy-poststerone n = 5), read-out: Half Life, Rate of Excretion method (converted)): 3.4 ± 1 h; half-life ([1]; in vivo, human urine, single oral dose 50 mg ecdysterone, mean ± SD of 12 subjects (14-deoxy-poststerone n = 5), read-out: Half Life, Sigma-Minus method (converted)): 3 ± 1 h; Cmax ([1]; in vivo, human urine, single oral dose 50 mg ecdysterone, range over subjects, read-out: Maximum urinary concentration (Cmax), range over subjects): 4400 to 30000 ng/mL; half-life ([1]; in vivo, human urine, single oral dose 50 mg ecdysterone, read-out: Urinary half-life (approximate) (converted)): ~3 h; Tmax ([1]; in vivo, human urine, single oral dose 50 mg ecdysterone, mean ± SD of 12 subjects (14-deoxy-poststerone n = 5)): 4.6 ± 1.8 h; Time at which cumulative urinary excretion reaches a plateau ([1]; human urine, post-dosage): 12 h; First detection in urine after administration [1, 10]: 45 min; Kinetics of urinary elimination ([1]; listed as ecdysterone): first-order; Stability% [2, 12]: 101%; Stability% [2, 13]: 98%; Stability% [2, 14]: 100%; Stability% ([2]; HQC, freeze-thaw 3 cycles): 103%; Stability% [2, 15]: 87%; Stability% [2, 16]: 100%; Stability% [2, 17]: 104%; Stability% [2, 18]: 100%; Stability% ([2]; LQC, freeze-thaw 3 cycles): 111%; Stability% [2, 19]: 94%
CC(C)(O)CC[C@@H](O)[C@](C)(O)[C@H]1CC[C@H]2C3=CC(=O)[C@@H]4C[C@@H](O)[C@@H](O)C[C@]4(C)[C@H]3CC[C@]12C [14-deoxy-ecdysterone, Alpha-14-deoxy-ecdysterone] | all 12 subjects | 1400 ± 1600 ng/mL | 3.1 ± 1.3 h | 2.2 ± 0.9 h | 100 to 6000 ng/mL | 19.7 ± 8.9 h | 2.3% | 0.4–6.1% | about 3 days | 2.95 h | 75 h | 0.1 ± 0.1 mg/h | 17.5 ± 7.0 h | 1.1 ± 0.9 mg | 8.5 to 39.5 h and 8.5 to 39.50 h | No significant difference | three | 0.02 to 0.24 mg/h | 10.1 to 29.5 h | first-order kinetics | half-life ([1]; urine, human urine, single oral dose 50 mg ecdysterone, read-out: Urinary half-life (approximate) (converted)): ~3 h; Time at which cumulative urinary excretion reaches a plateau ([1]; in 58.3% of subjects): 25 to 40 h; Time at which cumulative urinary excretion reaches a plateau ([1]; in the remaining 16.6% of subjects): 40 to 62 h; Stability% [2, 12]: 101%; Stability% [2, 13]: 100%; Stability% [2, 14]: 101%; Stability% ([2]; HQC, freeze-thaw 3 cycles): 103%; Stability% [2, 15]: 87%; Stability% [2, 16]: 103%; Stability% [2, 17]: 101%; Stability% [2, 18]: 97%; Stability% ([2]; LQC, freeze-thaw 3 cycles): 110%; Stability% [2, 19]: 91%
